This is an account of results in US8008303B2, “Biphenyl derivatives and their use in treating hepatitis C” (AstraZeneca AB, priority 2005, dated 2011).

A word on the IC50: it is the concentration needed to halve the response being measured. Read a low IC50 as greater potency.

Each structure is given as a SMILES string. Like-named read-outs stand apart in the source and are kept apart here.

Data set [1] has as its system HCV replicon cells Huh 9B. Description: HCV replicon assay (luciferase readout). Type of data set: cell-based. The method, then:
(§1) HCV replicon cells Huh 9B (ReBlikon), containing the firefly luciferase-ubiquitin-neomycin phosphotransferase fusion protein and EMCV-IRES driven HCV polyprotein with cell culture adaptive mutations.
Cells were cultured at 37° C. in a 5% CO2 environment and split twice a week on seeding at 2×10^6 cells/flask on day 1 and 1×10^6 3 days later. G418 at 0.5 mg/ml was added to the culture medium but not the assay medium.
The culture medium consisted of DMEM with […] glucose and glutamax (Gibco 61965-026) supplemented with 1× non-essential amino acids (Invitrogen 11140-035), penicillin (100 IU/ml)/streptomycin (100 μg/ml) (Invitrogen 15140-122), FCS (10%, 50 ml) and 1 mg/ml G418 (Invitrogen 10131-027) & 10% Australian foetal calf serum (Invitrogen 10099-141).
A flask of cells was trypsinised and a cell count carried out. Cells were diluted to 100,000 cells/ml and 100 μl of this used to seed one opaque white 96-well plate (for the replicon assay) and one flat-bottomed clear plate (for the tox assay) for every seven compounds to be tested for IC50. Wells G12 and H12 were left empty in the clear plate as the blank. Plates were then incubated at 37° C. in a 5% CO2 environment for 24 h.
(§2) On the following day compound dilutions are made up in medium at twice their desired final concentration in a clear round bottomed plate. All dilutions have a final DMSO concentration of 1%.
Once the dilution plate had been made up, controls and compounds were transferred to the assay plate (containing the cells) at 100 μl /well in duplicate plates. Exception: no compound was added to wells A1 and A2 of either plate and 100 μl of 1% DMSO was added to these instead. Plates were then incubated at 37° C. with 5% CO2 for 72 h.
At the end of the incubation time, the cells in the white plate were harvested by washing 23.5 mM beetle luciferin (Promega E1603), 26 mM ATP (Sigma 0-2060) in […] Tris buffer pH 7.8 aliquoted and stored at −80 C was thawed and diluted 1:50 in luciferase assay buffer (20 mM Tricine (Sigma T-0377), 1.07 mM magnesium carbonate hydroxide (Sigma M-5671), 0.1 mM EDTA (Sigma E-5134), 2.67 mM MgSO4 (BDH 101514Y), 33.3 mM dithiothreitol (Sigma 150460) pH 7.8).
The M injector of the microplate luminometer (Lmax, Molecular Devices) was primed with 5×300 μl injections of the diluted substrate. After 5-60 min incubation in lysis buffer at room temperature, a plate was inserted into the luminometer and 100 μl luciferase assay reagent was added by the injector on the luminometer. The signal was measured using a 1 second delay followed by a 4 second measurement programme.
(In general: Replicon systems follow genome replication, usually without infectious particles.)

In data set [2] the test system is HCV replicon cells Huh 9B. The class given is cell-based. As to the method: as §1
A flask of cells was trypsinised and a cell count carried out. […] Wells G12 and H12 were left empty in the clear plate as the blank. Plates were then incubated at 37° C. in a 5% CO2 environment for 24 h.
as §2
Exception: no compound was added to wells A1 and A2 of either plate and 100 μl of 1% DMSO was added to these instead. Plates were then incubated at 37° C. with 5% CO2 for 72 h.
The clear plate was stained with 100 μl 0.5% methylene blue in 50% ethanol at room temperature for 1 h, followed by solvation of the absorbed methylene blue in 100 μl per well of 1% lauroylsarcosine. Absorbance of the plate was measured on a microplate spectrophotometer (Molecular Devices) and the absorbance for each concentration of compound expressed as a proportion of the relative DMSO control.

The mark [3] stands for this setting: Hepatitis C virus, 72 h, concentration reducing replicon level (luciferase activity) by 50% vs untreated cell control, 72 h incubation.
[4] abbreviates: concentration reducing total cell area by 50% relative to DMSO controls, methylene blue, absorbance 620 nm, 72 h incubation.

For the molecule `COc1ccc(NC(=O)C2CCCCC2)cc1-c1ccc(C(=O)Nc2ccc(CN3CCS(=O)(=O)CC3)cc2)cc1` [Example 187, 5′-(Cyclohexanecarbonyl-amino)-2′-methoxy-biphenyl-4-carboxylic acid [4-(1,1-dioxo-1lambda*6*-thiomorpholin-4-ylmethyl)-phenyl]-amide], the IC50 in data set [1] (setting [3]) is below 1 µM. In addition, the TD50 entry in data set [2] (setting [4]) is on record as “* (* < 50 μM)”.
For `CCCS(=O)(=O)N1CCN(Cc2ccc(NC(=O)c3ccc(-c4cc(NC(=O)NC5CCCCC5)ccc4Cl)cc3)cc2)CC1` [Example 253, 2′-Chloro-5′-(3-cyclohexyl-ureido)-biphenyl-4-carboxylic acid {4-[4-(propane-1-sulfonyl)-piperazin-1-ylmethyl]-phenyl}-amide], the half-inhibitory concentration (IC50) in data set [1] (setting [3]) was below 1 µM. Also, the TD50 entry in data set [2] (setting [4]) is listed as “* (* < 50 μM)”.
In the same order, the values of `Cc1ccc(C(=O)Nc2ccc(CN3CCS(=O)(=O)CC3)cc2)cc1-c1ccc(C(=O)Nc2ccc(CN3CCS(=O)(=O)CC3)cc2)cc1` [Example 129, 6-Methyl-biphenyl-3,4′-dicarboxylic acid bis-{[4-(1,1-dioxo-1lambda*6*-thiomorpholin-4-ylmethyl)-phenyl]-amide}] are below 1 µM and “* (* < 50 μM)”.
The molecule `Cc1ccc(C(=O)Nc2ccc(N3CCOCC3)cc2)cc1-c1ccc(C(=O)Nc2ccccc2CN2CCCCC2)cc1` [Example 80, 6-Methyl-biphenyl-3,4′-dicarboxylic acid 3-[(4-morpholin-4-yl-phenyl)-amide] 4′-[(2-piperidin-1-ylmethyl-phenyl)-amide]] came in with an IC50 in data set [1] of 1 to 5 µM. For the same molecule, the TD50 entry in data set [2] is given as “* (key: * < 50 μM; ** > 50 μM)”.
Turning to `Cc1ccc(C(=O)Nc2ccc(N3CCOCC3)cc2)cc1-c1ccc(C(=O)Nc2ccc(C(=O)N3CCCCC3)cc2)cc1` [Example 58, 6-Methyl-biphenyl-3,4′-dicarboxylic acid 3-[(4-morpholin-4-yl-phenyl)-amide] 4′-{[4-(piperidine-1-carbonyl)-phenyl]-amide}], the concentration for half-maximal inhibition (IC50) in data set [1] fell in the range of 1 to 5 µM. For the same molecule, in data set [2], the TD50 entry is “** (key: * < 50 μM; ** > 50 μM)”.
`O=C(Nc1ccc(CN2CCS(=O)(=O)CC2)cc1)c1ccc(-c2cccc(NC(=O)C3CCC3)c2)cc1` [Example 169, 3′-(Cyclobutanecarbonyl-amino)-biphenyl-4-carboxylic acid [4-(1,1-dioxo-1lambda*6*-thiomorpholin-4-ylmethyl)-phenyl]-amide] yielded a half-maximal inhibitory concentration (IC50) in data set [1] (setting [3]) below 1 µM. For the same molecule, the TD50 result in data set [2] (setting [4]) is recorded as “* (* < 50 μM)”.
In data set [1], `Cc1ccc(C(=O)Nc2ccc(N3CCOCC3)cc2)cc1-c1ccc(C(=O)Nc2cccc(OC(F)(F)F)c2)cc1` [Example 25, 6-Methyl-biphenyl-3,4′-dicarboxylic acid 3-[(4-morpholin-4-yl-phenyl)-amide] 4′-[(3-trifluoromethoxy-phenyl)-amide]] displayed an IC50 of 1 to 5 µM. For the same molecule, in data set [2], the TD50 entry is listed as “* (key: * < 50 μM; ** > 50 μM)”.
For the molecule `Cc1ccc(NC(=O)c2ccc(CN3CCS(=O)(=O)CC3)cc2)cc1-c1ccc(C(=O)NCc2cccc(Cl)c2)cc1` [Example 162, 5′-[4-(1,1-Dioxo-1lambda*6*-thiomorpholin-4-ylmethyl)-benzoylamino]-2′-methyl-biphenyl-4-carboxylic acid 3-chloro-benzylamide], the IC50 in data set [1] (setting [3]) lay in the range of 1 to 5 µM. In data set [2] (setting [4]), the TD50 result is given as “* (* < 50 μM)”.
Consider `COc1cccc(NC(=O)c2ccc(-c3cc(C(=O)Nc4ccc(N5CCOCC5)cc4)ccc3C)cc2)c1` [Example 33, 6-Methyl-biphenyl-3,4′-dicarboxylic acid 4′-[(3-methoxy-phenyl)-amide] 3-[(4-morpholin-4-yl-phenyl)-amide]], for which, in data set [1], the IC50 was below 1 µM. Besides, in data set [2], the TD50 entry is listed as “** (key: * < 50 μM; ** > 50 μM)”.
In the same order, the values of `Cc1ccc(C(=O)NCCCN2CCN(C)CC2)cc1-c1ccc(C(=O)Nc2ccc(N3CCOCC3)cc2)cc1` [Example 9, 6-Methyl-biphenyl-3,4′-dicarboxylic acid 3-{[3-(4-methyl-piperazin-1-yl)-propyl]-amide} 4′-[(4-morpholin-4-yl-phenyl)-amide]] are above 5 µM and “* (key: * < 50 μM; ** > 50 μM)”.
Consider `Cc1ccc(NC(=O)C2CCCC2)cc1-c1ccc(C(=O)Nc2ccc(CN3CCS(=O)(=O)CC3)cc2)cc1` [Example 167, 5′-(Cyclopentanecarbonyl-amino)-2′-methyl-biphenyl-4-carboxylic acid [4-(1,1-dioxo-1lambda*6*-thiomorpholin-4-ylmethyl)-phenyl]-amide], for which, in data set [1] (setting [3]), the IC50 was below 1 µM. For the same molecule, in data set [2] (setting [4]), the TD50 result is listed as “* (* < 50 μM)”.
`Cc1ccc(C(=O)Nc2ccc(N3CCOCC3)cc2)cc1-c1ccc(C(=O)Nc2ccc3[nH]c(=O)[nH]c3c2)cc1` [Example 79, 6-Methyl-biphenyl-3,4′-dicarboxylic acid 3-[(4-morpholin-4-yl-phenyl)-amide] 4′-[(2-oxo-2,3-dihydro-1H-benzoimidazol-5-yl)-amide]] came in with a half-maximal inhibitory concentration (IC50) in data set [1] above 5 µM. Moreover, in data set [2], the TD50 result is “* (key: * < 50 μM; ** > 50 μM)”.
On the same counts, the results for `Cc1ccc(C(=O)Nc2ccc(N3CCOCC3)cc2)cc1-c1ccc(C(=O)NCc2cccc(Cl)c2)cc1` [Example 83, 6-Methyl-biphenyl-3,4′-dicarboxylic acid 4′-(3-chloro-benzylamide) 3-[(4-morpholin-4-yl-phenyl)-amide]] are 1 to 5 µM and “** (key: * < 50 μM; ** > 50 μM)”.
`Cc1ccc(C(=O)Nc2ccc(N3CCOCC3)cc2)cc1-c1ccc(C(=O)NCCc2cccs2)cc1` [Example 11, 6-Methyl-biphenyl-3,4′-dicarboxylic acid 3-[(4-morpholin-4-yl-phenyl)-amide] 4′-[(2-thiophen-2-yl-ethyl)-amide]]: the half-inhibitory concentration (IC50) in data set [1] fell in the range of 1 to 5 µM. In addition, in data set [2], the TD50 entry is listed as “** (key: * < 50 μM; ** > 50 μM)”.
Molecule `Cc1ccc(NC(=O)c2cccs2)cc1-c1ccc(C(=O)Nc2ccc3cn[nH]c3c2)cc1` [Example 213, Thiophene-2-carboxylic acid [4′-(1H-indazol-6-ylcarbamoyl)-6-methyl-biphenyl-3-yl]-amide] displayed an IC50 in data set [1] (setting [3]) of 1 to 5 µM. In data set [2] (setting [4]), the TD50 result is on record as “* (* < 50 μM)”.
`Cc1ccc(C(=O)Nc2ccc(N3CCOCC3)cc2)cc1-c1ccc(C(=O)Nc2ccc(Br)c(Cl)c2)cc1` [Example 30, 6-Methyl-biphenyl-3,4′-dicarboxylic acid 4′-[(4-bromo-3-chloro-phenyl)-amide] 3-[(4-morpholin-4-yl-phenyl)-amide]] gave a half-maximal inhibitory concentration (IC50) in data set [1] of 1 to 5 µM. The TD50 entry in data set [2] was “** (key: * < 50 μM; ** > 50 μM)”.
In the same order, the values of `Cc1ccc(C(=O)NCC2CCCO2)cc1-c1ccc(C(=O)Nc2ccc(CN3CCS(=O)(=O)CC3)cc2)cc1` (centres unmarked) [Example 124, 6-Methyl-biphenyl-3,4′-dicarboxylic acid 4′-{[4-(1,1-dioxo-1lambda*6*-thiomorpholin-4-ylmethyl)-phenyl]-amide} 3-[(tetrahydro-furan-2-ylmethyl)-amide]] are 1 to 5 µM and “* (key: * < 50 μM; ** > 50 μM)”.
In data set [1] (setting [3]), `COc1ccc(NC(=O)C2CC2)cc1-c1ccc(C(=O)Nc2ccc(CN3CCS(=O)(=O)CC3)cc2)cc1` [Example 186, 5′-(Cyclopropanecarbonyl-amino)-2′-methoxy-biphenyl-4-carboxylic acid [4-(1,1-dioxo-1lambda*6*-thiomorpholin-4-ylmethyl)-phenyl]-amide] returned an IC50 below 1 µM. The TD50 result in data set [2] (setting [4]) is “* (* < 50 μM)”.
The molecule `Cc1ccc(C(=O)Nc2ccc(N3CCOCC3)cc2)cc1-c1ccc(C(=O)Nc2ccc(CN3CCS(=O)(=O)CC3)cc2)cc1` [Example 50, 6-Methyl-biphenyl-3,4′-dicarboxylic acid 4′-{[4-(1,1-dioxo-1lambda*6*-thiomorpholin-4-ylmethyl)-phenyl]-amide} 3-[(4-morpholin-4-yl-phenyl)-amide]] returned an IC50 in data set [1] below 1 µM. Also, in data set [2], the TD50 entry was “** (key: * < 50 μM; ** > 50 μM)”.
